According to US20250367183A1, “SUBSTANCE FOR PROMOTING REGENERATION AND REPAIR OF ORGANS OF MAMMALS AND USE THEREOF” (INSTITUTE OF ZOOLOGY, CHINESE ACADEMY OF SCIENCES, priority 2022, published 2025):
Read-outs that look alike come from different tables or passages of the source.

Columns and labels:
[1] = system: 2 mm diameter mouse ear hole; assay: ear hole trauma mouse model, 2 mm diameter ear puncher; assay type: in vivo, C57BL/6 mice; details: for healing of the 2 mm ear hole: treated 21 days, vs Vehicle (FIG. 1B); for healing of 2 mm ear hole: ferroptosis/autophagy inhibitors 10-20 mg/kg, measured 21 days after damage, n≥8 (FIG. 3)
[2] = system: 4 mm diameter mouse ear hole; parameters: species or system mice; details: in vivo
[3] = system: overall protein translation; assay type: cell-based

Molecule: C[C@@H]1C[C@@H]([C@H](O)CC2CC(=O)NC(=O)C2)C(=O)[C@@H](C)C1 [CHX, 4-((R)-2-((1S,3S,5S)-3,5-dimethyl-2-oxocyclohexyl)-2-hydroxyethyl)piperidine-2,6-dione]
- ISG gene expression (ISG genes; fibroblasts and macrophages): upregulate the expression of classical ISGs
- HE staining of auricle tissue ([1]; CHX 20 mg/kg (FIG. 1E)): the trauma had completely healed
- HE staining of auricle tissue ([1]; CHX 20 mg/kg, 15th day after trauma (FIG. 1F)): healed the tissue after damage and formed granulation tissue
- KI67 immunohistochemical staining of auricle tissue ([1]; CHX 20 mg/kg, 7 days, basal cells (FIG. 1G)): expressed a large amount of KI67
- closure of 2 mm ear hole wound ([1]; CHX 20 mg/kg, 30 days (FIG. 1D)): completely closed
- HE staining of auricle tissue, regenerated tissues ([1]; CHX 20 mg/kg, 180 days after ear hole closure (FIG. 1H)): regeneration of tissues and tissue derivatives such as hair follicles, glands, cartilage, muscles and blood vessels
- healing of the 2 mm ear hole ([1]; CHX 20 mg/kg): significantly promote the healing of the ear hole
- closure of 2 mm ear hole wound ([1]; CHX greater than 8 mg/kg, after three weeks of treatment (FIG. 1C)): completely closed
- closure of 2 mm ear hole ([1]; each concentration of CHX, intraperitoneal, n≥8 (FIG. 1C)): promoted the closure of a 2 mm diameter of ear holes
- healing effect by administration manner ([1]; oral gavage and intraperitoneal injection, 3 weeks (FIG. 1I)): different manners of administration had the effect of promoting regeneration
- wound area of 4 mm ear hole [2]: significantly reduced

Molecule: COc1ccc(C[C@H]2NC[C@H](O)[C@H]2OC(C)=O)cc1 [Ani, anisomycin]
- healing of the 2 mm ear hole ([1]; Ani 10 mg/kg): significantly promote the healing of the ear hole

Molecule: O=C1N[C@@H]2C(=C[C@H](O)[C@@H](O)[C@H]2O)c2cc3c(c(O)c21)OCO3 [Narciclasine]
- ISG gene expression (ISG genes; fibroblasts and macrophages): significantly promoted the expression of ISG genes
- regenerated tissues in closed ear holes (histochemical, Masson) ([1]; Narciclasine 1-3 mg/kg (FIG. 5F, 5G)): regenerate tissues and tissue derivatives such as hair follicles, glands, cartilage and muscles
- healing of 2 mm ear holes ([1]; Narciclasine 1-3 mg/kg, intraperitoneal (FIG. 5D, 5E)): significantly promote the healing of 2 mm ear holes
- inhibition of overall protein translation [3]: significantly inhibit the overall protein translation

Molecule: O=C(Nc1ccc(C(O)(C(F)(F)F)C(F)(F)F)cc1)c1ccc(C(F)(F)F)cc1 [SR1078]
- healing of ear holes ([1]; SR1078 1 mg/kg, 21 days after trauma, n≥7 (FIG. 10A)): significantly inhibited regeneration

Molecule: O=S(=O)(NCCN1CCNCC1)c1ccc(NC2CCCCC2)c(NCc2ccccc2)c1 [UAMC-3203]
- healing of 2 mm ear hole [1]: Neither inhibitors of ferroptosis nor autophagy could promote the healing of the ear hole like CHX

Molecule: O=S(=O)(Nc1ccc(C(O)(C(F)(F)F)C(F)(F)F)cc1)c1cccs1 [SR3335]
- ISG gene expression (ISG genes; fibroblasts and macrophages): promote the ISG gene expression
- healing of ear holes ([1]; SR3335 10 mg/kg, 21 days after trauma, n≥7 (FIG. 10A)): promoted the ear holes
- HE staining of ear hole ([1]; SR3335 (FIG. 10D)): the wound was almost completely healed
- Masson staining of ear hole ([1]; SR3335, 21 days of treatment (FIG. 10E)): regeneration structures of cartilage, hair follicles, sebaceous glands (arrows), and muscles

Molecule: O=C1OC(COc2ccccc2[N+](=O)[O-])CC1Cc1ccccc1 (stereo not shown) [3BDO]
- healing of 2 mm ear hole [1]: Neither inhibitors of ferroptosis nor autophagy could promote the healing of the ear hole like CHX

Molecule: Cc1cc(Nc2cc(Cl)nc(Oc3ccc([N+](=O)[O-])cc3)n2)n[nH]1 [Autophinib]
- healing of 2 mm ear hole [1]: Neither inhibitors of ferroptosis nor autophagy could promote the healing of the ear hole like CHX

Molecule: O=C1N[C@H]2[C@H](O)[C@H](O)[C@@H](O)[C@H](O)[C@@H]2c2cc3c(c(O)c21)OCO3 [Pancratistatin]
- ISG gene expression (ISG genes): significantly promote the ISG gene expression
- HE and Masson staining of ear hole ([1]; mouse, in vivo): completely closed and identified as a regeneration event
- closure of 2 mm ear hole ([1]; mouse, in vivo): the ear hole was completely closed
- inhibition of overall protein translation [3]: significantly inhibit overall protein translation

Molecule: Cn1nc(C(C)(C)C)cc1NC(=O)Nc1ccc(Oc2ccncc2)cc1 [MAPK13-IN-1]
- ISG gene expression (ISG genes; FIG. 9B, cell type not given): promote the ISG gene expression
- HE staining of ear hole ([1]; MAPK13-IN-1 20 mg/kg (FIG. 9C)): the trauma was almost completely healed
- Masson staining of ear hole ([1]; MAPK13-IN-1, 21 days of treatment (FIG. 9D)): Obvious regeneration of muscle fiber bundles was observed

B1: interferon (IFN) γ: cytokine interferon γ (protein, UniProt P01579 24-161, looked up)
Interferon gamma: QDPYVKEAENLKKYFNAGHSDVADNGTLFLGILKNWKEESDRKIMQSQIVSFYFKLFKNFKDDQSIQKSVETIKEDMNVKFFNSNKKKRDDFEKLTNYSVTDLNVQRKAIHELIQVMAELSPAAKTGKRKRSQMLFRG
- ISG gene expression (ISG genes; 10 ng/ml, fibroblasts and macrophages (FIG. 7A, 7B)): significantly promote the ISG gene expression
- healing of ear holes ([1]; IFNγ 50 μg/kg ip once every two days, 35th day after damage (FIG. 7C)): significantly promoted the healing of ear holes after damage

B2: S100A8/A9: S100A8/A9 heterodimer (Biolegend, 765502), alarmin protein (protein, UniProt P05109 1-93; P06702 1-114, looked up)
Protein S100-A8: MLTELEKALNSIIDVYHKYSLIKGNFHAVYRDDLKKLLETECPQYIRKKGADVWFKELDINTDGAVNFQEFLILVIKMGVAAHKKSHEESHKE
Protein S100-A9: MTCKMSQLERNIETIINTFHQYSVKLGHPDTLNQGEFKELVRKDLQNFLKKENKNEKVIEHIMEDLDTNADKQLSFEEFIMLMARLTWASHEKMHEGDEGPGHHHKPGLGEGTP
- ISG gene expression (ISG genes; 5 ng/ml, fibroblasts and macrophages (FIG. 8A, 8B)): significantly promote the ISG gene expression
- healing of ear holes ([1]; S100A8/A9 12.5 μg/kg ip every two days, 35th day after damage (FIG. 8C)): significantly promoted the healing of the ear holes
- complete closure of ear holes ([1]; S100A8/A9 12.5 μg/kg, 35th day after damage): one of the ear holes was completely closed
- HE and Masson staining, regenerated structures ([1]; S100A8/A9 (FIG. 8D)): regeneration of various tissue structures, such as epidermis, dermis, hair follicles, glands, cartilage
